According to ChEMBL document CHEMBL1221220, “Transport and signaling via the amino acid binding site of the yeast Gap1 amino acid transceptor” (Nat Chem Biol, 2009):
Where a chain is given by its changes, count along the chain named. Activity calls are given as the source filed them. The calls are words filed in the database; no cut-off is given here.

Key:
[1] = test system: T1, General amino-acid permease GAP1 (Saccharomyces cerevisiae), P19145 [L383C]; assay: Activation of yeast Gap1 L383C mutant-mediated amino acid uptake at 10 mM
T1 sequence (whole entry): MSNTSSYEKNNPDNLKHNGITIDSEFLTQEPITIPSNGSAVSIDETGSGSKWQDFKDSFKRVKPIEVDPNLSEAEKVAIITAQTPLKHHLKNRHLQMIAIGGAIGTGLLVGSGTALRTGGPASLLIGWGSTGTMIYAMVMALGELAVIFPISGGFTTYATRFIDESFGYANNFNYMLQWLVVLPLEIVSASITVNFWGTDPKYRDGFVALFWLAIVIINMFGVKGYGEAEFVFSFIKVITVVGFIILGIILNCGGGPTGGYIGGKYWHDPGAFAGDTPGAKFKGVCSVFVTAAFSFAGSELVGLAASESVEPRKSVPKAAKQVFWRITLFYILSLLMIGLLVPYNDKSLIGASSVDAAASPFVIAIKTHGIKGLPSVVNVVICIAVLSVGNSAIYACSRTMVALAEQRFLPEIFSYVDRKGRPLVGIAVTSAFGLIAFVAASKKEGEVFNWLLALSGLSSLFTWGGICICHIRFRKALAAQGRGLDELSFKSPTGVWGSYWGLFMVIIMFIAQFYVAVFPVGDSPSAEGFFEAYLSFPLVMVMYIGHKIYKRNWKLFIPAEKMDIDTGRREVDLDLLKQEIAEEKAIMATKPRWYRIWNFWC

[2] = test system: T2, General amino-acid permease GAP1 (Saccharomyces cerevisiae), P19145 [A385C]; assay: Activation of yeast Gap1 A385C mutant-mediated amino acid uptake at 10 mM
T2 sequence (whole entry): T1 sequence (whole entry) with C383L, A385C

[3] = test system: T3, General amino-acid permease GAP1 (Saccharomyces cerevisiae), P19145 [R399C]; assay: Activation of yeast Gap1 R399C mutant-mediated amino acid uptake at 10 mM
T3 sequence (whole entry): T1 sequence (whole entry) with C383L, R399C

[4] = test system: T4, General amino-acid permease GAP1 (Saccharomyces cerevisiae), P19145 [M401C]; assay: Activation of yeast Gap1 M401C mutant-mediated amino acid uptake at 10 mM
T4 sequence (whole entry): T1 sequence (whole entry) with C383L, M401C

[5] = test system: Saccharomyces cerevisiae; assay: Induction of yeast Gap1 L404 mutant-mediated trehalose activation at 2 mM in presence of 10 mM MTSEA treated before compound addition

Activity [1]: inactive
Activity [2]: inactive
Activity [3]: inactive
Activity [4]: inactive
inhibition [5]: Active
Structure (SMILES): NC(=O)NCCC[C@H](N)C(=O)O
